Results published in patent US20230233519A1, “COMBINATION THERAPIES” (MEI Pharma, Inc., priority 2020, published 2023).

Tests used:
[1] = test system: MOLM-13 AML cells; test: Annexin V-FITC/PI apoptosis flow cytometry, MOLM-13; type: cell-based, human; conditions: MOLM-13, 24 h, clinically achievable concentrations
Procedure: (§1) AML cell lines used as described herein include MOLM-13, MV4-11, and THP-1. MOLM-13 cells are purchased from AddexBio (San Diego, Calif., USA). MV4-11 and THP-1 cell lines are purchased from the American Type Culture Collection (Manassas, Va., USA). The cell lines are cultured in RPMI 1640 with 10-20% fetal bovine serum (Thermo Fisher Scientific, Waltham, Mass., USA), 2 mM L-glutamine, 100 U/mL penicillin, and 100 μg/mL streptomycin. All cells are cultured in a 37° C. humidified atmosphere containing 5% CO2/95% air. The cell lines are authenticated at the Genomics Core at Karmanos Cancer Institute using the Power-Plex 16 System from Promega (Madison, Wis., USA). […]
(§2) Human adult AML cell lines (MOLM-13), human childhood AML cell lines (MV4-11 and THP-1), and cytarabine-resistant (araC-R) acute monocytic leukemia (AMoL) cell lines (U937) are treated with venetoclax and d-cis-3-(4-hydroxyphenyl)-4-(4-hydroxyphenyl)-8-methylchroman-7-ol (Compound A), alone or in combination, and are subject to flow cytometry analysis using Annexin V-fluorescein isothiocyanate (FITC)/propidium iodide (PI) Apoptosis Kit (Beckman Coulter, Brea, Calif.). Results are expressed as percent Annexin V-positive (Annexin V+) cells. […] The extent and direction of the antileukemic interaction between venetoclax and Compound A is determined by calculating the combination index (CI). […]

[2] = test system: MV4-11 childhood AML cells; test: Viable cells (annexin V negative and PI negative) by flow cytometry, MV4-11; type: cell-based, human; conditions: MV4-11, 24 hr, clinically achievable concentrations
Procedure: (§3) FIG. 2B depicts the percentage of viable MV4-11 childhood AML cells following treatment of MV4-11 childhood AML cell lines with venetoclax (VEN) and d-cis-3-(4-hydroxyphenyl)-4-(4-hydroxyphenyl)-8-methylchroman-7-ol (Compound A), alone or in combination, for 24 h. and then subjected to Annexin V-FITC/PI staining and flow cytometry analysis. Viable cells (annexin V negative and PI negative) were gated. Viable cell counts from no drug treatment controls were set at 100%, and the rest of the samples were normalized to the no drug treatment controls. The data were presented as mean percent of viable cells from triplicates with standard errors. […]
as §2

[3] = test system: cytarabine resistant (araC-R) U937 acute monocytic leukemia (AMoL) cells; test: Annexin V-FITC/PI apoptosis flow cytometry, araC-R U937; type: cell-based; conditions: araC-R U937, 24 h, clinically achievable concentrations
Procedure: Human adult AML cell lines (MOLM-13), human childhood AML cell lines (MV4-11 and THP-1), and cytarabine-resistant (araC-R) acute monocytic leukemia (AMoL) cell lines (U937) are treated with venetoclax and d-cis-3-(4-hydroxyphenyl)-4-(4-hydroxyphenyl)-8-methylchroman-7-ol (Compound A), alone or in combination, and are subject to flow cytometry analysis using Annexin V-fluorescein isothiocyanate (FITC)/propidium iodide (PI) Apoptosis Kit (Beckman Coulter, Brea, Calif.). Results are expressed as percent Annexin V-positive (Annexin V+) cells. For the AML/AMoL cell lines, experiments are performed three independent times in triplicate, and the data presented are from one representative experiment. The extent and direction of the antileukemic interaction between venetoclax and Compound A is determined by calculating the combination index (CI). CI<1 indicates synergistic effects, CI=1 indicates additive effects, and CI>1 indicates antagonistic effects. ***indicates p<0.001 compared to control.

[4] = test system: THP-1 childhood AML cells; test: Annexin V-FITC/PI apoptosis flow cytometry, THP-1; type: cell-based, human; conditions: THP-1, 24 h, clinically achievable concentrations
Procedure: as §1, §2

[5] = test system: THP-1 childhood AML cells; test: Viable cells (annexin V negative and PI negative) by flow cytometry, THP-1; type: cell-based, human; conditions: THP-1, 24 hr, clinically achievable concentrations
Procedure: as §3, with “2C” for “2B”, “THP-1” for “MV4-11”
as §2

[6] = test system: MOLM-13 AML cells; test: Viable cells (annexin V negative and PI negative) by flow cytometry, MOLM-13; type: cell-based, human; conditions: MOLM-13, 24 hr, clinically achievable concentrations
Procedure: FIG. 2A depicts the percentage of viable MOLM-13 AML cells following treatment of MOLM-13 AML cell lines with venetoclax (VEN) and d-cis-3-(4-hydroxyphenyl)-4-(4-hydroxyphenyl)-8-methylchroman-7-ol (Compound A), alone or in combination, for 24 h and then subjected to Annexin V-FITC/PI staining and flow cytometry analysis. Viable cells (annexin V negative and PI negative) were gated. Viable cell counts from no drug treatment controls were set at 100%, and the rest of the samples were normalized to the no drug treatment controls. The data were presented as mean percent of viable cells from triplicates with standard errors.
AML cell lines used as described herein include MOLM-13, MV4-11, and THP-1. […]
as §2

[7] = test system: MV4-11 childhood AML cells; test: Annexin V-FITC/PI apoptosis flow cytometry, MV4-11; type: cell-based, human; conditions: MV4-11, 24 h, clinically achievable concentrations
Procedure: as §1, §2

Cc1c(O)ccc2c1OC[C@@H](c1ccc(O)cc1)[C@H]2c1ccc(O)cc1 [Compound A, d-cis-3-(4-hydroxyphenyl)-4-(4-hydroxyphenyl)-8-methylchroman-7-ol]
dose-dependent decrease in viability: viability (percent of viable cells vs no drug control) [2] | viability (percent of viable cells vs no drug control) [5] | viability (percent of viable cells vs no drug control) [6]
high levels of apoptosis: apoptosis (Annexin V+ cells) [1] | apoptosis (Annexin V+ cells) [3] | apoptosis (Annexin V+ cells) [4] | apoptosis (Annexin V+ cells) [7]
